Assay results as given in ChEMBL document CHEMBL2331217, “Evolvosides C–E, flavonol-4'-O-triglycosides from evolvulus alsinoides and their anti-stress activity [corrected]” (2013).

Columns and labels:
Format in all cases: functional
Rattus norvegicus [1] = test: Anti-stress activity in Sprague-Dawley rat assessed as change in acute stress-induced plasma corticosterone level at 40 mg/kg, po qd for 3 days prior to acute stress induction measured after 150 mins by HPLC/UV analysis (reference value: 511.2 +/- 23.2 ng/ml)
Rattus norvegicus [2] = test: Anti-stress activity in Sprague-Dawley rat assessed as change in acute stress-induced plasma creatine kinase level at 40 mg/kg, po qd for 3 days prior to acute stress induction measured after 150 mins (reference value: 1018 +/- 31.43 mg/dl)
Rattus norvegicus [3] = test: Anti-stress activity in Sprague-Dawley rat assessed as change in acute stress-induced plasma glucose level at 40 mg/kg, po qd for 3 days prior to acute stress induction measured after 150 mins (reference value: 154.7 +/- 4.38 mg/dl)
Rattus norvegicus [4] = test: Anti-stress activity in Sprague-Dawley rat assessed as change in acute stress-induced adrenal gland weight at 40 mg/kg, po qd for 3 days prior to acute stress induction measured after 150 mins (reference value: 10.2 +/- 0.84 mg/kg)

Work on `C[C@@H]1O[C@@H](OC[C@H]2O[C@@H](Oc3ccc(-c4oc5cc(O)cc(O)c5c(=O)c4O)cc3)[C@H](O)[C@@H](O)[C@@H]2O)[C@H](O)[C@H](O)[C@H]1O` yielded an Activity (Rattus norvegicus [1]) of 239.2 ng/mL, an Activity (Rattus norvegicus [2]) of 521.4 mg/dL and an Activity (Rattus norvegicus [3]) of 105.13 mg/dL. The Activity (Rattus norvegicus [4]) was 8.47 mg/kg.
`COc1cc(O)c2c(=O)c(O)c(-c3ccc(O[C@@H]4O[C@H](CO[C@@H]5O[C@@H](C)[C@H](O)[C@@H](O)[C@H]5O[C@@H]5O[C@H](CO)[C@@H](O)[C@H](O)[C@H]5O)[C@@H](O)[C@H](O)[C@H]4O)cc3)oc2c1` [EVOLVOSIDE D] gave an Activity (Rattus norvegicus [1]) of 241.7 ng/mL, an Activity (Rattus norvegicus [2]) of 405.4 mg/dL and an Activity (Rattus norvegicus [3]) of 95.13 mg/dL. For the same compound, the Activity (Rattus norvegicus [4]) was 8.23 mg/kg.
`C[C@@H]1O[C@@H](OC[C@H]2O[C@@H](Oc3ccc(-c4oc5cc(O)cc(O)c5c(=O)c4O)cc3)[C@H](O)[C@@H](O)[C@@H]2O)[C@H](O[C@@H]2O[C@H](CO)[C@@H](O)[C@H](O)[C@H]2O)[C@H](O)[C@H]1O` [EVOLVOSIDE C] showed an Activity (Rattus norvegicus [1]) of 233.3 ng/mL, an Activity (Rattus norvegicus [2]) of 385.3 mg/dL and an Activity (Rattus norvegicus [3]) of 80.17 mg/dL. For the same compound, the Activity (Rattus norvegicus [4]) was 7.11 mg/kg.
In the case of `COc1cc(OC)c2c(=O)c(O)c(-c3ccc(O[C@@H]4O[C@H](CO[C@@H]5O[C@@H](C)[C@H](O)[C@@H](O)[C@H]5O[C@@H]5O[C@H](CO)[C@@H](O)[C@H](O)[C@H]5O)[C@@H](O)[C@H](O)[C@H]4O)cc3)oc2c1` [EVOLVOSIDE E], the Activity (Rattus norvegicus [1]) is reported as 252.6 ng/mL and the Activity (Rattus norvegicus [2]) is reported as 413.7 mg/dL.
With `O=c1cc(-c2ccc(O)cc2)oc2c([C@@H]3O[C@H](CO)[C@@H](O)[C@H](O)[C@H]3O)c(O)cc(O)c12` the Activity (Rattus norvegicus [1]) was 439 ng/mL, the Activity (Rattus norvegicus [2]) was 822 mg/dL and the Activity (Rattus norvegicus [3]) was 92.1 mg/dL. For the same compound, the Activity (Rattus norvegicus [4]) was 9.78 mg/kg.
In the case of `O=c1c(O)c(-c2ccc(O[C@@H]3O[C@H](CO)[C@@H](O)[C@H](O)[C@H]3O[C@@H]3O[C@H](CO)[C@@H](O)[C@H](O)[C@H]3O)cc2)oc2cc(O)cc(O)c12`, the Activity (Rattus norvegicus [1]) is reported as 458.2 ng/mL, the Activity (Rattus norvegicus [2]) is reported as 1078 mg/dL and the Activity (Rattus norvegicus [3]) is reported as 113.1 mg/dL. It also gave an Activity (Rattus norvegicus [4]) of 10.91 mg/kg.
